Source: ChEMBL document CHEMBL1142021, “Aglycon specificity profiling of alpha-glucosidases using synthetic probes” (Bioorg Med Chem Lett, 2005)

What was measured:
[1] = Inhibitory concentration of Bacillus stearothermophilus glucosidase (of family 13 alpha-glucosidase) at 1 umol/mL; set-up: species or system Geobacillus stearothermophilus
[2] = target: T1, Lysosomal alpha-mannosidase (Homo sapiens) (UniProt O00754); test: Inhibition of alpha-Mannosidase; settings: concentration not given here
T1 sequence (whole entry): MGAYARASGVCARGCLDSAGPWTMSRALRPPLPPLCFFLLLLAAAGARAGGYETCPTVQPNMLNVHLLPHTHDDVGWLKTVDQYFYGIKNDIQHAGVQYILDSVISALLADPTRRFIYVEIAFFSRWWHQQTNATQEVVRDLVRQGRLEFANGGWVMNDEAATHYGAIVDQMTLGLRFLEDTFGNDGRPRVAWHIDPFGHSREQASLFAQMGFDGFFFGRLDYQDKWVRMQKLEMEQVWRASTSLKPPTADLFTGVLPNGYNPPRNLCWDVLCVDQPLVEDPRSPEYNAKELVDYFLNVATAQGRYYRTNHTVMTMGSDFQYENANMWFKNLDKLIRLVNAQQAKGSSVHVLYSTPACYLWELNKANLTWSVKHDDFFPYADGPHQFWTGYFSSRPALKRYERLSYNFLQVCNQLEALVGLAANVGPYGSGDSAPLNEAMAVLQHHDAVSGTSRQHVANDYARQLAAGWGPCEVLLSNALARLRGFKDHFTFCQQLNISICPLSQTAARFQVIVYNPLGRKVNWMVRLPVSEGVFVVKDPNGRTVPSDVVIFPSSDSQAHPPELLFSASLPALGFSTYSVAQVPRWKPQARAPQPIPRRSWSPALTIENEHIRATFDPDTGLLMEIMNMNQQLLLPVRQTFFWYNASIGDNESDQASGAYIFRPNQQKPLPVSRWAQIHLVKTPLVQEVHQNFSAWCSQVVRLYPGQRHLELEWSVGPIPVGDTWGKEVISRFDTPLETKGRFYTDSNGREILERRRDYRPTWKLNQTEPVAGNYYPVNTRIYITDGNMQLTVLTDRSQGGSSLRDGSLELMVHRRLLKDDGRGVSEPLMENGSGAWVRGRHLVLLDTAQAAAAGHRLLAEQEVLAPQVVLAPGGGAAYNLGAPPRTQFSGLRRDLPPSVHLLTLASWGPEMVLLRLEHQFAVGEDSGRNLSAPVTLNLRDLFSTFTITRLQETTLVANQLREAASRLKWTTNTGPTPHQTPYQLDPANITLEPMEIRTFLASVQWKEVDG

[3] = target: T2, Alpha-glucosidase (Apis mellifera) (UniProt Q17058); test: Inhibition of family 13 alpha-glucosidase isoform I from honey bee; settings: concentration not given here
T2 sequence (whole entry): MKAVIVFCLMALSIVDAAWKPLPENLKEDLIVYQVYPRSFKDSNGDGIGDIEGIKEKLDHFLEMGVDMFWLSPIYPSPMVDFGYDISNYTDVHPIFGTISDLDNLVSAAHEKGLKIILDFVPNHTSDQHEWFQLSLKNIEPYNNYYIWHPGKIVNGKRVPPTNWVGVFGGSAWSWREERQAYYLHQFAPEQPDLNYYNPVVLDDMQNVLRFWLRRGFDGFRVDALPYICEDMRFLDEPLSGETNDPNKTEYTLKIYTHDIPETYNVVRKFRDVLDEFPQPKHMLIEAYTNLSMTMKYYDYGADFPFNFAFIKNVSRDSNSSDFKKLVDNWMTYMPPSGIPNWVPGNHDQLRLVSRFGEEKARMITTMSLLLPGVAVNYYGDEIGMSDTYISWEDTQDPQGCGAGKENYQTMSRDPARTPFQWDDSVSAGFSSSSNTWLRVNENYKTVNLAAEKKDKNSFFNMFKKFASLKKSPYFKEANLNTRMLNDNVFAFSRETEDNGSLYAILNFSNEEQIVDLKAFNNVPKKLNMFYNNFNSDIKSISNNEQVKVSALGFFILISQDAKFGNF

IC50 [1] [µM]	inhibition [2] [%]	inhibition [3] [%]	SMILES
415	–	–	O=C(CCCCO)NCC1OC(CO)C(O)C(O)C1O (stereo not drawn)
–	< 1	< 1	O=C(CCCO)NCC1OC(CO)C(O)C(O)C1O (stereo not drawn)
